According to patent publication US9580416B2, “Inhibitors of Bruton's tyrosine kinase” (PHARMACYCLICS LLC, priority 2014, dated 2017):

What was measured:
Format in all cases: biochemical
[1] = molecular target: EGFR (Homo sapiens, UniProt P00533); assay: Inhibition of a panel of kinases, in vitro HotSpot kinase assay: EGFR
Protocol: (§1) The degree of inhibition of a panel of kinases is determined using the in vitro HotSpot kinase assay (purified enzymes, ^33P-ATP, an appropriate substrate and 1 uM ATP).

[2] = molecular target: Lck (Homo sapiens, UniProt P06239); assay: Lck kinase activity, TR-FRET assay; settings: read-out: LCK (IC50)
Sequence of Lck (P06239 whole entry, species assumed): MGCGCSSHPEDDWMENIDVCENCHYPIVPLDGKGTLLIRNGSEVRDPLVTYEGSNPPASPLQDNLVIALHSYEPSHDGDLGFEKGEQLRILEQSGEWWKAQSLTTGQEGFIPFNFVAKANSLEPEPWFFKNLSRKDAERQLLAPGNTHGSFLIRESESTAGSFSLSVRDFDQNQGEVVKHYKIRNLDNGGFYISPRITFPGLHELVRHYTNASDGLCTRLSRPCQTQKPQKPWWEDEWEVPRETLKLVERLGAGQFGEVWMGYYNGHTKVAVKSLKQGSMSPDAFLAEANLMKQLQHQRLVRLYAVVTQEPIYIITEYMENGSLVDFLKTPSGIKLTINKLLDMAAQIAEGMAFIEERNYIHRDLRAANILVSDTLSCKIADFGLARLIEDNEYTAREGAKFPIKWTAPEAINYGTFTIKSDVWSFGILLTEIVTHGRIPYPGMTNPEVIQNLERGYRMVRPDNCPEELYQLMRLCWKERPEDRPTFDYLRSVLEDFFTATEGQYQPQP
Summary of the method: (§2)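 Enzyme (Btk 0.5 nM; Lck 6 nM) reacted 1 h with inhibitor, ATP at Km and biotin-peptide substrate in pH 7.4 buffer, 10% DMSO. Phosphopeptide detected by Eu-p-Tyr100 antibody plus streptavidin-APC (665/615 nm). IC50 calculated from fitted Ki(app) via ATP/Km correction plus half total enzyme.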

[3] = molecular target: T1, JAK3 (Homo sapiens, UniProt P52333); assay: Inhibition of a panel of kinases, in vitro HotSpot kinase assay: JAK3
T1 sequence (P52333 1-1124): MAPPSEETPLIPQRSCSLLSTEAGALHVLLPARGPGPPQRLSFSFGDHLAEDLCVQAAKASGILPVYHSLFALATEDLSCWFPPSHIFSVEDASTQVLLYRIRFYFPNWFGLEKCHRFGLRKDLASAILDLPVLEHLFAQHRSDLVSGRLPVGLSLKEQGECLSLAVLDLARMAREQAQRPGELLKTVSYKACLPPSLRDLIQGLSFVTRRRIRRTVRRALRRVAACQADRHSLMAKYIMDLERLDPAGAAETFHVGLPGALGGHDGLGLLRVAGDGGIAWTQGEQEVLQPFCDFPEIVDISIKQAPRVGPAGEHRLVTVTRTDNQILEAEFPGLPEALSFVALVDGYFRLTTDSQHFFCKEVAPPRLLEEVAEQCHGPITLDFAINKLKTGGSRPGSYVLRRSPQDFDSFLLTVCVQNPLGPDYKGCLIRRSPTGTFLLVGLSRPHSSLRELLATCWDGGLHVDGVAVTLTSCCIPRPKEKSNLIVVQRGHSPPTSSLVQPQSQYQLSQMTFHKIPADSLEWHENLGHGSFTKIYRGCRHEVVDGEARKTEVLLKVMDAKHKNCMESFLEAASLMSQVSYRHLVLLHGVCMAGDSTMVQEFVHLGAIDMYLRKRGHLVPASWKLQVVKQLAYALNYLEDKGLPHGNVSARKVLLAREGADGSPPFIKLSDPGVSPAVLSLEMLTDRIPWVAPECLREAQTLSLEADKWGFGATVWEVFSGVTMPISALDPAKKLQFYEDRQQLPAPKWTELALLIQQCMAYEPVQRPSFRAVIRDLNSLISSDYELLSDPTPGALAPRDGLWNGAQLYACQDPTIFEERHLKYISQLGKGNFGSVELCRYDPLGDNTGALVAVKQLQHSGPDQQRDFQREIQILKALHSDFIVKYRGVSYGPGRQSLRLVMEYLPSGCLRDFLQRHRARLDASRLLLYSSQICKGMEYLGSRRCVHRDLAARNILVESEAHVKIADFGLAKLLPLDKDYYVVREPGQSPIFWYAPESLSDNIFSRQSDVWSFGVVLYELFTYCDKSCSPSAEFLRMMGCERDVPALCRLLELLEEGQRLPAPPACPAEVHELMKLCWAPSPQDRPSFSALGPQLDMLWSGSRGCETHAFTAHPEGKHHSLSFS
Protocol: as §1

[4] = molecular target: Btk (Homo sapiens, UniProt Q06187); assay: Btk kinase activity, TR-FRET assay; settings: read-out: Btk (IC50)
Sequence of Btk (Q06187 whole entry): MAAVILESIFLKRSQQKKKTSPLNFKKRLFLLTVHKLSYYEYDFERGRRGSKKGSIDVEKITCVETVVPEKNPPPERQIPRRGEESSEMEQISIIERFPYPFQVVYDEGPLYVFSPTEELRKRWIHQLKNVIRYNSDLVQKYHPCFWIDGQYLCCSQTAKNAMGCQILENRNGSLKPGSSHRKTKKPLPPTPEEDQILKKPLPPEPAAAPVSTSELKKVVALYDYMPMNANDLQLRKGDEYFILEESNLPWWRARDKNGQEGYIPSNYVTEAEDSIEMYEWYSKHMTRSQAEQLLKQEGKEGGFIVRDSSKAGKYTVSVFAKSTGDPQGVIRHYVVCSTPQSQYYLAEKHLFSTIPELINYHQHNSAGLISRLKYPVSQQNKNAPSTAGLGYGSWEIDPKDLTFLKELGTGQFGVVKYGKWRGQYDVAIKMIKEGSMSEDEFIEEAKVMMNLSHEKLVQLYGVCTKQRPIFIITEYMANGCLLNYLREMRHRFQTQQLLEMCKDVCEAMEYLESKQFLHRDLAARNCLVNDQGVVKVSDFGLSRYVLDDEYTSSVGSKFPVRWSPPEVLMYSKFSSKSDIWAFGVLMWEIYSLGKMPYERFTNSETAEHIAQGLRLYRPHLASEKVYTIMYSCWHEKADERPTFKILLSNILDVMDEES
Summary of the method: as §2

Sequence of EGFR (P00533 25-1210): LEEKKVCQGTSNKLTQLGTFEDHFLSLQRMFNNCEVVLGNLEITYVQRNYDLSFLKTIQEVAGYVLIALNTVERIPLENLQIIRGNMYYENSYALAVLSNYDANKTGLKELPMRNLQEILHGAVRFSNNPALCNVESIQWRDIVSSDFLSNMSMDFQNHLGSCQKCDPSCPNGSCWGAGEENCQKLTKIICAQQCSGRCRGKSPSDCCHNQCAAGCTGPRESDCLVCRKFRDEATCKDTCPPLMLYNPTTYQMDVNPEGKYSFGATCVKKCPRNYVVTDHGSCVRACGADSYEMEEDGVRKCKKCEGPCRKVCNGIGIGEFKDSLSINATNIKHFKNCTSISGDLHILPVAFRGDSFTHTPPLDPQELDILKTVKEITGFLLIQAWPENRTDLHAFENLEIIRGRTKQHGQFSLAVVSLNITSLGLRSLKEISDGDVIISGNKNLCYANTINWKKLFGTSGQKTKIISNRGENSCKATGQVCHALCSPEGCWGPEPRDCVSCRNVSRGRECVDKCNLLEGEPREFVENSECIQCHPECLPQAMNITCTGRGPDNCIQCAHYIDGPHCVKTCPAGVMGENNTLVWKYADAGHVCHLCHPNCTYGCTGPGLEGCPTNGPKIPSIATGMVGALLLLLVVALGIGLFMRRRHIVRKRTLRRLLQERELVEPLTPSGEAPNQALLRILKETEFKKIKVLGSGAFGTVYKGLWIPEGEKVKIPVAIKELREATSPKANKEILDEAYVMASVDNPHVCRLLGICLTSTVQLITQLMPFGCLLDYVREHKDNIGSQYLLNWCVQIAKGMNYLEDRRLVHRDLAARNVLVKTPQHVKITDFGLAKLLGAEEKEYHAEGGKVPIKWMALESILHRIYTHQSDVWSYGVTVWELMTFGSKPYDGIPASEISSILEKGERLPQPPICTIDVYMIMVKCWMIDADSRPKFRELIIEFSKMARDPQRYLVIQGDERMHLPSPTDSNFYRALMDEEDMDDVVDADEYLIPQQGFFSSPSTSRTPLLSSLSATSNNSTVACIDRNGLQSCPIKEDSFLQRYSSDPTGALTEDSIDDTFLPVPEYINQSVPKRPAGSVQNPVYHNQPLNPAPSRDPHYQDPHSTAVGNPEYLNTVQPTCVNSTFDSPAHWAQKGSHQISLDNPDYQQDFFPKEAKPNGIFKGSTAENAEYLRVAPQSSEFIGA

C=CC(=O)N1CCC[C@@H](Nc2n[nH]c3nccc(Oc4ccc(C(=O)Nc5nc6ccccc6s5)cc4)c23)C1 [compound 162]
IC50 [1]: < 0.1 µM
IC50 [2]: 0.1 to 1 µM
IC50 [3]: < 0.1 µM
IC50 [4]: < 0.1 µM

C=CC(=O)N1CCC[C@@H](Nc2n[nH]c3nccc(Oc4ccc(-c5ncc(C)s5)cc4)c23)C1 [compound 158]
IC50 [1]: 0.1 to 1 µM
IC50 [2]: 1 to 10 µM
IC50 [3]: 1 to 10 µM
IC50 [4]: < 0.1 µM

Cc1cc(Oc2ccccc2)ccc1Oc1ccnc2[nH]nc(N[C@@H]3CCCN(C(=O)/C=C/CN(C)C4CC4)C3)c12 [compound 169]
IC50 [1]: 0.1 to 1 µM
IC50 [2]: < 0.1 µM
IC50 [3]: 1 to 10 µM
IC50 [4]: < 0.1 µM

C=CC(=O)N1CCC[C@@H](Nc2n[nH]c3nccc(Oc4cccc(C(=O)Nc5ncc(C)s5)c4)c23)C1 [compound 149]
IC50 [1]: < 0.1 µM
IC50 [2]: 1 to 10 µM
IC50 [3]: < 0.1 µM
IC50 [4]: < 0.1 µM

Cc1ccnc(NC(=O)c2ccc(Oc3ccnc4[nH]nc(N[C@@H]5CCCN(S(C)(=O)=O)C5)c34)cc2)c1 [compound 269, (R)-N-(4-methylpyridin-2-yl)-4-(3-(1-(methylsulfonyl)piperidin-3-ylamino)-1H-pyrazolo[3,4-b]pyridin-4-yloxy)benzamide]
IC50 [1]: 1 to 10 µM
IC50 [2]: 0.1 to 1 µM
IC50 [3]: > 10 µM
IC50 [4]: < 0.1 µM

Cc1ccnc(NC(=O)c2ccc(Oc3ccnc4[nH]nc(N[C@@H]5CCCN(C(=O)C(N)=O)C5)c34)cc2)c1 [compound 270, (R)-4-(3-(1-(2-amino-2-oxoacetyl)piperidin-3-ylamino)-1H-pyrazolo[3,4-b]pyridin-4-yloxy)-N-(4-methylpyridin-2-yl)benzamide]
IC50 [1]: 0.1 to 1 µM
IC50 [2]: 0.1 to 1 µM
IC50 [3]: > 10 µM
IC50 [4]: < 0.1 µM

Cc1ccnc(NC(=O)c2ccc(Oc3ccnc4[nH]nc(N[C@@H]5CCCN(C(=O)C6(C)CCN(C)CC6)C5)c34)cc2)c1 [compound 283, (R)-4-(3-(1-(1,4-dimethylpiperidine-4-carbonyl)piperidin-3-ylamino)-1H-pyrazolo[3,4-b]pyridin-4-yloxy)-N-(4-methylpyridin-2-yl)benzamide]
IC50 [1]: > 10 µM
IC50 [2]: 0.1 to 1 µM
IC50 [3]: > 10 µM
IC50 [4]: < 0.1 µM

Cc1ccnc(NC(=O)c2ccc(Oc3ccnc4[nH]nc(N[C@@H]5CCCN(C(=O)c6ccccc6)C5)c34)cc2)c1 [compound 109, 4-[(3-{[(3R)-1-benzoylpiperidin-3-yl]amino}-1H-pyrazolo[3,4-b]pyridin-4-yl)oxy]-N-(4-methylpyridin-2-yl)benzamide]
IC50 [1]: > 10 µM
IC50 [2]: 1 to 10 µM
IC50 [3]: > 10 µM
IC50 [4]: < 0.1 µM

Cc1ccnc(NC(=O)c2ccc(Oc3ccnc4[nH]nc(N[C@@H]5CCCN(C(=O)C6(C)CCNCC6)C5)c34)cc2)c1 [compound 104, 4-[(3-{[(3R)-1-(4-methylpiperidine-4-carbonyl)piperidin-3-yl]amino}-1H-pyrazolo[3,4-b]pyridin-4-yl)oxy]-N-(4-methylpyridin-2-yl)benzamide]
IC50 [1]: 1 to 10 µM
IC50 [2]: 0.1 to 1 µM
IC50 [3]: > 10 µM
IC50 [4]: < 0.1 µM

COCC1(C(=O)N2CCC[C@@H](Nc3n[nH]c4nccc(Oc5ccc(C(=O)Nc6cc(C)ccn6)cc5)c34)C2)CCC1 [compound 99, 4-[(3-{[(3R)-1-[1-(methoxymethyl)cyclobutanecarbonyl]piperidin-3-yl]amino}-1H-pyrazolo[3,4-b]pyridin-4-yl)oxy]-N-(4-methylpyridin-2-yl)benzamide]
IC50 [1]: > 10 µM
IC50 [2]: 0.1 to 1 µM
IC50 [3]: > 10 µM
IC50 [4]: < 0.1 µM

CC(=O)N1CCC[C@@H](Oc2n[nH]c3nccc(Nc4cccc(C(=O)Nc5ccc(C(C)C)c(C)c5)c4)c23)C1 [compound 135, 3-[(3-{[(3R)-1-acetylpiperidin-3-yl]oxy}-1H-pyrazolo[3,4-b]pyridin-4-yl)amino]-N-[3-methyl-4-(propan-2-yl)phenyl]benzamide]
IC50 [1]: 1 to 10 µM
IC50 [2]: 1 to 10 µM
IC50 [3]: > 10 µM
IC50 [4]: 0.1 to 1 µM

Cc1cc(NC(=O)c2cccc(Oc3ccnc4[nH]nc(N[C@@H]5CCCN(C(=O)C#CCO)C5)c34)c2)ccc1C(C)C [compound 251, (R)-3-(3-(1-(4-hydroxybut-2-ynoyl)piperidin-3-ylamino)-1H-pyrazolo[3,4-b]pyridin-4-yloxy)-N-(4-isopropyl-3-methylphenyl)benzamide]
IC50 [1]: < 0.1 µM
IC50 [2]: 0.1 to 1 µM
IC50 [3]: < 0.1 µM
IC50 [4]: < 0.1 µM

CC#CC(=O)N1CCC[C@@H](Nc2n[nH]c3nccc(Oc4ccc(C(=O)Nc5nc(C)c(C)s5)cc4)c23)C1 [compound 175]
IC50 [1]: > 10 µM
IC50 [2]: 0.1 to 1 µM
IC50 [3]: > 10 µM
IC50 [4]: < 0.1 µM

Cc1cnc(NC(=O)c2ccc(Oc3ccnc4[nH]nc(N[C@@H]5CCN(C(=O)C6CC6)C5)c34)cc2)s1 [compound 200, 4-[(3-{[(3R)-1-cyclopropanecarbonylpyrrolidin-3-yl]amino}-1H-pyrazolo[3,4-b]pyridin-4-yl)oxy]-N-(5-methyl-1,3-thiazol-2-yl)benzamide]
IC50 [1]: 1 to 10 µM
IC50 [2]: 1 to 10 µM
IC50 [3]: > 10 µM
IC50 [4]: < 0.1 µM

CC1(C(=O)N2CCC[C@@H](Nc3n[nH]c4nccc(Oc5ccc(C(=O)Nc6ccccn6)cc5)c34)C2)COC1 [compound 111, 4-[(3-{[(3R)-1-(3-methyloxetane-3-carbonyl)piperidin-3-yl]amino}-1H-pyrazolo[3,4-b]pyridin-4-yl)oxy]-N-(pyridin-2-yl)benzamide]
IC50 [1]: > 10 µM
IC50 [2]: 1 to 10 µM
IC50 [3]: > 10 µM
IC50 [4]: < 0.1 µM

C=CC(=O)N1CCC[C@@H](Nc2n[nH]c3nccc(Oc4ccc(C(=O)Nc5cc(C)on5)cc4)c23)C1 [compound 178]
IC50 [1]: 1 to 10 µM
IC50 [2]: > 10 µM
IC50 [3]: 0.1 to 1 µM
IC50 [4]: < 0.1 µM

CCNC(=O)N1CCC[C@@H](Nc2n[nH]c3nccc(Oc4ccc(-c5nc6ccccc6s5)cc4)c23)C1 [compound 216, (3R)-3-({4-[4-(1,3-benzothiazol-2-yl)phenoxy]-1H-pyrazolo[3,4-b]pyridin-3-yl}amino)-N-ethylpiperidine-1-carboxamide]
IC50 [1]: > 10 µM
IC50 [2]: 1 to 10 µM
IC50 [3]: > 10 µM
IC50 [4]: 0.1 to 1 µM

CN(C)CCCC(=O)N1CCC[C@@H](Nc2n[nH]c3nccc(Oc4ccc(C(=O)Nc5cc(C(F)(F)F)ccn5)cc4)c23)C1 [compound 161]
IC50 [1]: 0.1 to 1 µM
IC50 [2]: < 0.1 µM
IC50 [3]: > 10 µM
IC50 [4]: < 0.1 µM

CCNC(=O)N1CC[C@@H](Nc2n[nH]c3nccc(Oc4ccc(C(=O)Nc5cc(C(F)(F)F)ccn5)cc4)c23)C1 [compound 188]
IC50 [1]: 1 to 10 µM
IC50 [2]: 0.1 to 1 µM
IC50 [3]: > 10 µM
IC50 [4]: < 0.1 µM

C=CC(=O)N1CCC[C@@H](Nc2n[nH]c3nccc(Oc4ccc(C(=O)Nc5ncc(CC)s5)cc4)c23)C1 [compound 179]
IC50 [1]: < 0.1 µM
IC50 [2]: 0.1 to 1 µM
IC50 [3]: < 0.1 µM
IC50 [4]: < 0.1 µM

CCOP(=O)(CC(=O)N1CCC[C@@H](Nc2n[nH]c3nccc(Oc4ccc(C(=O)Nc5cc(C)ccn5)cc4)c23)C1)OCC [compound 272, (R)-diethyl 2-(3-(4-(4-(4-methylpyridin-2-ylcarbamoyl)phenoxy)-1H-pyrazolo[3,4-b]pyridin-3-ylamino)piperidin-1-yl)-2-oxoethylphosphonate]
IC50 [1]: > 10 µM
IC50 [2]: 0.1 to 1 µM
IC50 [3]: > 10 µM
IC50 [4]: < 0.1 µM

Cc1cnc(NC(=O)c2ccc(Oc3ccnc4[nH]nc(N[C@@H]5CCN(C(=O)CCCN(C)C)C5)c34)cc2)s1 [compound 202, 4-[(3-{[(3R)-1-[4-(dimethylamino)butanoyl]pyrrolidin-3-yl]amino}-1H-pyrazolo[3,4-b]pyridin-4-yl)oxy]-N-(5-methyl-1,3-thiazol-2-yl)benzamide]
IC50 [1]: > 10 µM
IC50 [2]: 1 to 10 µM
IC50 [3]: > 10 µM
IC50 [4]: < 0.1 µM

C=CC(=O)N1CCC[C@@H](Nc2n[nH]c3nccc(Oc4cccc(C(=O)Nc5cc(C(F)(F)F)ccn5)c4)c23)C1 [compound 191]
IC50 [1]: < 0.1 µM
IC50 [2]: 0.1 to 1 µM
IC50 [3]: < 0.1 µM
IC50 [4]: < 0.1 µM
